Results reported in patent publication US20090192151A1, “THERAPEUTIC AMIDES AND RELATED COMPOUNDS” (priority 2008, published 2009).

Test system: lashes and adjacent hairs
Assay: Clinical observation of lashes and adjacent hairs in glaucoma patients treated with bimatoprost in only one eye
Format: in vivo
Source text: In the course of treating patients having glaucoma, treatment may only be appropriate in one eye. […] The lash appearance on the lids of the treated eyes would have appeared quite attractive if it represented a bilateral phenomenon. As a result of its asymmetric nature, the long lashes on one side could be construed as disturbing from a cosmetic standpoint. A systemic examination was preformed as a result of the asymmetric phenomenon. It soon became apparent that this altered appearance was not an isolated finding.
The changes in the lashes were apparent on gross inspection in several patients once attention was focused on the issue. In those with light colored hair and lashes, the differences were only seen easily with the aid of the high magnification and lighting capabilities of the slit lamp biomicroscope. In the course of glaucoma follow-up examination, attention is generally immediately focused on the eye itself. As a result of the high power magnification needed only one eye is seen at a time and the eye is seen at a high enough power that the lashes are not in focus. At these higher powers, any lash asymmetry between the two eyes is not likely to be noticed except by careful systematic comparison of the lashes and adjacent hairs of the eyelids of the two eyes.
Observed parameters leading to the conclusion that more robust hair growth occurred in the treatment area following administration of the prostaglandin analogue were multiple. They included increased length of lashed, increased number of lashes along the normal lash line, increased thickness and luster of lashes, increased auxiliary lash-like terminal hair in transitional areas adjacent to areas of normal lash growth, increased auxiliary lash-like terminal hairs at the medial and lateral canthal area, increased pigmentation of the lashes, increased numbers, increased length, as well as increased luster, and thickness of fine hair on the skin of the adjacent lid, and finally, increased perpendicular angulation of lashes and lash-like terminal hairs.

CCNC(=O)CCC/C=C\C[C@@H]1[C@@H](/C=C/[C@@H](O)CCc2ccccc2)[C@H](O)C[C@@H]1O [bimatoprost]
lash appearance in treated eye versus non-treated eye (a glaucoma patient treated with bimatoprost in one eye, gross examination): longer, thicker, and fuller in the treated eye than in the non-treated eye | differences in the lashes and adjacent hairs of treated side (all patients taking the drug on a unilateral basis for longer than 6 months): Definite differences could be identified to varying degrees | hair growth, conclusion from multiple parameters of hair appearance in treated versus control areas (many subjects, lash length, number, thickness, luster, pigmentation, auxiliary terminal hairs): hair growth is stimulated
